Results as given in the supplement of paper PMC11208160.

Assay: recombinant UMI read abundance after kanamycin selection (control-corrected) (log10(CPM+1)); higher = more efficient recombination; extreme values may be limits of the assay; sequences stand for … in AGTGCAGAGAAAATCGGCCAGTTTTCTCTGCCTGCAGTCCGCATGCCGTGGGACCCCTTGGGTTCTAACCTGTTGCCTAGATTTATGCAGCGGACTGCCTTTCTCCCAAAGTGATAAACCGG…AGGTTGGTTTCACT; site = the 11-nt donor
How it was run: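 Counts of recombinant UMIs were reported as log10(CPM+1). Before that, they were converted to CPM, averaged over replicates and scaled using control-derived factors. They came from PCR across the donor–target junction after Escherichia coli carrying the pair library and target plasmid was plated on IPTG (0.07 mM) plus kanamycin, or unselected, in two replicates each.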
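Also: IS621 bridge recombinase in Escherichia coli cells against a fixed T5 target plasmid.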

Sequence | recombinant UMI read abundance (log10)
GATCCTACATGGACCGGTTTTCCCGGTAATCCGTATTTGCT (site GATCCTACTAG) | 0.00962
GATCCTTCATGGACCGGTTTTCCCGGTAATCCGTATTTGTC (site GATCCTTCTGA) | 0.252
GATCTCTCATGGACCGGTTTTCCCGGTAATCCGTATTTGAT (site GATCTCTCTAT) | 0.578
GATGACACATGGACCGGTTTTCCCGGTAATCCGTATTTGTC (site GATGACACTGA) | 1.18
GATGACTCATGGACCGGTTTTCCCGGTAATCCGTATTTGGT (site GATGACTCTAC) | 2.49
GATGCAGCATGGACCGGTTTTCCCGGTAATCCGTATTTGTA (site GATGCAGCTTA) | 1.62
GATGCAGCATGGACCGGTTTTCCCGGTAATCCGTATTTGTT (site GATGCAGCTAA) | 0.749
GATGTACCATGGACCGGTTTTCCCGGTAATCCGTATTTGGC (site GATGTACCTGC) | 0.247
GATTACTCATGGACCGGTTTTCCCGGTAATCCGTATTTGTC (site GATTACTCTGA) | 1.09
GATTATCCATGGACCGGTTTTCCCGGTAATCCGTATTTGCC (site GATTATCCTAG) | 0
GATTATCCATGGACCGGTTTTCCCGGTAATCCGTATTTGCC (site GATTATCCTCG) | 0
GATTATCCATGGACCGGTTTTCCCGGTAATCCGTATTTGCC (site GATTATCCTGG) | 0
GATTATCCATGGACCGGTTTTCCCGGTAATCCGTATTTGCC (site GATTATCCTTG) | 0
GATTCATCATGGACCGGTTTTCCCGGTAATCCGTATTTGCG (site GATTCATCTCG) | 1.2
GATTCGGCATGGACCGGTTTTCCCGGTAATCCGTATTTGAC (site GATTCGGCTGT) | 0.484
GATTGCGCATGGACCGGTTTTCCCGGTAATCCGTATTTGCG (site GATTGCGCTCG) | 0.805

Sequence | recombinant UMI read abundance (log10)
GATTGGACATGGACCGGTTTTCCCGGTAATCCGTATTTGAT (site GATTGGACTAT) | 0.838
GATTGGACATGGACCGGTTTTCCCGGTAATCCGTATTTGAT (site GATTGGACTCT) | 0.0264
GATTGGACATGGACCGGTTTTCCCGGTAATCCGTATTTGAT (site GATTGGACTGT) | 0
GATTGGACATGGACCGGTTTTCCCGGTAATCCGTATTTGAT (site GATTGGACTTT) | 0.0212
GATTGGACATGGACCGGTTTTCCCGGTAATCCGTATTTGCC (site GATTGGACTGA) | 0
GATTGGACATGGACCGGTTTTCCCGGTAATCCGTATTTGCC (site GATTGGACTGC) | 0
GATTGGACATGGACCGGTTTTCCCGGTAATCCGTATTTGCC (site GATTGGACTGG) | 2.68
GATTGGACATGGACCGGTTTTCCCGGTAATCCGTATTTGCC (site GATTGGACTGT) | 0
GATTGGACATGGACCGGTTTTCCCGGTAATCCGTATTTGTC (site GATTGGACTGA) | 0.657
GATTGGACATGGACCGGTTTTCCCGGTAATCCGTATTTGTC (site GATTGGACTGC) | 0
GATTGGACATGGACCGGTTTTCCCGGTAATCCGTATTTGTC (site GATTGGACTGG) | 0.913
GATTGGACATGGACCGGTTTTCCCGGTAATCCGTATTTGTC (site GATTGGACTGT) | 0.172
GATTTATCATGGACCGGTTTTCCCGGTAATCCGTATTTGTC (site GATTTATCTGA) | 0.525
GATTTCGCATGGACCGGTTTTCCCGGTAATCCGTATTTGGG (site GATTTCGCTCC) | 0.00434
GCAAACGCATGGACCGGTTTTCCCGGTAATCCGTATTTGTG (site GCAAACGCTCA) | 1.98
GCAACTACATGGACCGGTTTTCCCGGTAATCCGTATTTGTG (site GCAACTACTCA) | 1.17
